Source: patent US11458123B2 (Arvinas, Inc., priority 2016, dated 2022)

System: tau protein
Test: Tau protein in vitro degradation assay (Western blot, Tau-13 antibody)
Type: cell-based, human
Conditions: SK-N-SH cells; 72 hours of incubation; tested at 300 nM, 100 nM, 33 nM and 11 nM; Western blot, Tau-13 antibody
Protocol: Tau Protein In Vitro Degradation Assay
To determine effect of PROTACs on tau protein degradation SK-N-SH cells were seeded in a 24-well tissue culture-treated plate for at least 18-hours prior to compound addition. Tau PROTACs were evaluated for tau degradation by lysing the cells in lysis buffer with protease inhibitors following a 72-hour incubation with tau PROTACs at 1000 nM, 300 nM and 100 nM for Table 1 and 300 nM, 100 nM, 33 nM and 11 nM for Table 2. Cell lysates were run on standard SDS-PAGE gels, and tau levels were detected by Western blotting using Tau-13 antibody from Abcam (Cambridge, UK) that binds to all forms of human tau.

SMILES	Degradation activity* (highest amount of degradation observed at any dosage; tau protein remaining)	Degradation activity (tau protein remaining; highest amount of degradation observed at any dosage)
Cn1c2ccncc2c2ccc(-c3ccc(O[C@H]4C[C@H](OCCOCCOCCOC5CN(c6ccc7c(c6)C(=O)N(C6CCC(=O)NC6=O)C7=O)C5)C4)nc3)cc21 (stereo partly drawn) [Compound 161, 2-(2,6-dioxopiperidin-3-yl)-5-(3-(2-(2-(2-((1r,3r)-3-((5-(5-methyl-5H-pyrido[4,3-b]indol-7-yl)pyridin-2-yl)oxy)cyclobutoxy)ethoxy)ethoxy)ethoxy)azetidin-1-yl)isoindoline-1,3-dione]	C (>80% tau protein remaining after 72 hours of incubation with the test compound)	–
Cc1ncsc1-c1ccc([C@H](C)NC(=O)[C@@H]2C[C@@H](O)CN2C(=O)[C@@H](NC(=O)COCCOCCOCCOCCOc2ncc(-c3ccc4c(c3)[nH]c3ccncc34)cc2C(F)(F)F)C(C)(C)C)cc1 [Compound 119, (2S,4R)-1-((S)-17-((5-(5H-pyrido[4,3-b]indol-7-yl)-3-(trifluoromethyl)pyridin-2-yl)oxy)-2-(tert-butyl)-4-oxo-6,9,12,15-tetraoxa-3-azaheptadecanoyl)-4-hydroxy-N—((S)-1-(4-(4-methylthiazol-5-yl)phenyl)ethyl)pyrrolidine-2-carboxamide]	C (>80% tau protein remaining after 72 hours of incubation with the test compound)	–
O=C1CCC(N2C(=O)c3ccc(OCCCCCc4ccc(O[C@H]5C[C@H](Oc6ccc(-c7ccc8c(c7)[nH]c7ccncc78)cn6)C5)cn4)cc3C2=O)C(=O)N1 (stereo partly drawn) [Compound 83, 5-((5-(5-((1r,3r)-3-((5-(5H-pyrido[4,3-b]indol-7-yl)pyridin-2-yl)oxy)cyclobutoxy)pyridin-2-yl)pentyl)oxy)-2-(2,6-dioxopiperidin-3-yl)isoindoline-1,3-dione]	C (>80% tau protein remaining after 72 hours of incubation with the test compound)	–
Cn1c2ccncc2c2ccc(-c3ccc(OC4CN(C(=O)C56CC(COCCCCCOc7ccc8c(c7)C(=O)N(C7CCC(=O)NC7=O)C8=O)(C5)C6)C4)nc3)cc21 (stereo not drawn) [Compound 175, 2-(2,6-dioxopiperidin-3-yl)-5-((5-((3-(3-((5-(5-methyl-5H-pyrido[4,3-b]indol-7-yl)pyridin-2-yl)oxy)azetidine-1-carbonyl)bicyclo[1.1.1]pentan-1-yl)methoxy)pentyl)oxy)isoindoline-1,3-dione]	–	C (>80% tau protein remaining after 72 hours of incubation with the test compound)
O=C1CCC(N2C(=O)c3ccc(N4CC(OCC#Cc5ccc(O[C@H]6C[C@H](Oc7ccc(-c8ccc9c(c8)[nH]c8ccncc89)cn7)C6)cn5)C4)cc3C2=O)C(=O)N1 (stereo partly drawn) [Compound 194, 5-(3-((3-(5-((1r,3r)-3-((5-(5H-pyrido[4,3-b]indol-7-yl)pyridin-2-yl)oxy)cyclobutoxy)pyridin-2-yl)prop-2-yn-1-yl)oxy)azetidin-1-yl)-2-(2,6-dioxopiperidin-3-yl)isoindoline-1,3-dione]	–	C (>80% tau protein remaining after 72 hours of incubation with the test compound)
Cn1c2ccncc2c2ccc(-c3cnc(O[C@H]4C[C@H](OC5CCN(CCCCCOc6ccc7c(c6)C(=O)N(C6CCC(=O)NC6=O)C7=O)CC5)C4)c(C(F)(F)F)c3)cc21 (stereo partly drawn) [Compound 123, 2-(2,6-dioxopiperidin-3-yl)-5-((5-(4-((1r,3r)-3-((5-(5-methyl-5H-pyrido[4,3-b]indol-7-yl)-3-(trifluoromethyl)pyridin-2-yl)oxy)cyclobutoxy)piperidin-1-yl)pentyl)oxy)isoindoline-1,3-dione]	C (>80% tau protein remaining after 72 hours of incubation with the test compound)	–
Cn1c2ccncc2c2ccc(-c3ccc(O[C@H]4C[C@H](Oc5ccc(C#CCOC6CN(c7ccc8c(c7)C(=O)N(C7CCC(=O)NC7=O)C8=O)C6)nc5)C4)nc3)cc21 (stereo partly drawn) [Compound 111, 2-(2,6-dioxopiperidin-3-yl)-5-(3-((3-(5-((1r,3r)-3-((5-(5-methyl-5H-pyrido[4,3-b]indol-7-yl)pyridin-2-yl)oxy)cyclobutoxy)pyridin-2-yl)prop-2-yn-1-yl)oxy)azetidin-1-yl)isoindoline-1,3-dione]	C (>80% tau protein remaining after 72 hours of incubation with the test compound)	–
O=C1CCC(N2C(=O)c3ccc(OCCCCCOC4CCN(C(=O)[C@H]5C[C@H](Oc6ccc(-c7ccc8c(c7)[nH]c7ccncc78)cn6)C5)CC4)cc3C2=O)C(=O)N1 (stereo partly drawn) [Compound 165, 5-((5-((1-((1r,3r)-3-((5-(5H-pyrido[4,3-b]indol-7-yl)pyridin-2-yl)oxy)cyclobutane-1-carbonyl)piperidin-4-yl)oxy)pentyl)oxy)-2-(2,6-dioxopiperidin-3-yl)isoindoline-1,3-dione]	C (>80% tau protein remaining after 72 hours of incubation with the test compound)	–
O=C1CCC(N2C(=O)c3ccc(OCCCCCN4CCN(CCOCCCc5ccc(-c6ccc7c(c6)[nH]c6ccncc67)cn5)CC4)cc3C2=O)C(=O)N1 (stereo not drawn) [Compound 52, 5-((5-(4-(2-(3-(5-(5H-pyrido[4,3-b]indol-7-yl)pyridin-2-yl)propoxy)ethyl)piperazin-1-yl)pentyl)oxy)-2-(2,6-dioxopiperidin-3-yl)isoindoline-1,3-dione]	C (>80% tau protein remaining after 72 hours of incubation with the test compound)	–

Same assay, conditions: SK-N-SH cells; 72 hours of incubation; tested at 1000 nM, 300 nM and 100 nM

SMILES	Activity* (highest amount of degradation observed at any dosage, as tau protein remaining)
O=C1CCC(N2C(=O)c3cccc(NCCOCCOCCOCCOCC(=O)N4CCN(c5ccn6c(n5)nc5ccccc56)CC4)c3C2=O)C(=O)N1 (stereo not drawn) [Compound 42, 4-((14-(4-(benzo[4,5]imidazo[1,2-a]pyrimidin-2-yl)piperazin-1-yl)-14-oxo-3,6,9,12-tetraoxatetradecyl)amino)-2-(2,6-dioxopiperidin-3-yl)isoindoline-1,3-dione]	C (>80% tau protein remaining after 72 hours of incubation with the test compound)
Cc1ncsc1-c1ccc(CNC(=O)[C@@H]2C[C@@H](O)CN2C(=O)[C@@H](NC(=O)COCCOCCOCCOc2ccc3nc(-c4ccc(N(C)C)cc4)ccc3c2)C(C)(C)C)cc1 [Compound 29, (2S,4R)-1-((S)-2-tert-butyl-14-(2-(4-(dimethylamino)phenyl)quinolin-6-yloxy)-4-oxo-6,9,12-trioxa-3-azatetradecane)-4-hydroxy-N-(4-(4-methylthiazol-5-yl)benzyl)pyrrolidine-2-carboxamide]	C (>80% tau protein remaining after 72 hours of incubation with the test compound)
Cc1ncsc1-c1ccc([C@H](C)NC(=O)[C@@H]2C[C@@H](O)CN2C(=O)[C@@H](NC(=O)COCCCCOc2ccc3nc(-c4ccc(N(C)C)cc4)ccc3c2)C(C)(C)C)cc1 [Compound 34, (2S,4R)-1-((S)-2-(2-(4-(2-(4-(dimethylamino)phenyl)quinolin-6-yloxy)butoxy)acetamido)-3,3-dimethylbutanoyl)-4-hydroxy-N—((S)-1-(4-(4-methylthiazol-5-yl)phenyl)ethyl)pyrrolidine-2-carboxamide]	C (>80% tau protein remaining after 72 hours of incubation with the test compound)
